Laboratory results reported in PMC9653258, “NDUFS3 knockout cancer cells and molecular docking reveal specificity and mode of action of anti-cancer respiratory complex I inhibitors” (Open Biology, 2022).
Like-named read-outs stand apart in the source and are kept apart here.

Legend:
SKOV3 cells (NDUFS3^+/+) = experiment: Cell proliferation, Incucyte live-imaging (confluence); type: cell-based, human
Protocol: (§1) Cell proliferation and morphology were assessed using the Incucyte Live-imaging System (Sartorius) and proliferation was quantified through time-lapse image acquisition and metrics application.
(§2) Briefly, 2.5 × 10^3 SKOV3/well, 2 × 10^3 HCT116/well and 1 × 10^3 B16-F10/well were seeded in 96-well plates in high-glucose DMEM and incubated overnight to allow cells attachment. For specificity assays, NDUFS3 wild-type and knockout cells were seeded simultaneously, and the same confluence mask was applied for subsequent analysis. […] Cell growth was evaluated by Incucyte system phase contrast software (confluence metrics), which provides an occupied area average (% of confluence) per image/per well. For data in electronic supplementary material, figures S1 and S2, the analysis was performed using % of confluence metric per scan normalized on treatment starting point (time 0). For data in figures 1 and 2, the percentage of cell confluence normalized on time 0 for each inhibitor's treatment was subsequently normalized to untreated control. At least three replicate experiments were performed for each treatment condition.

[1] = tested on: HCT116 cells (NDUFS3^+/+); experiment: as above; type: cell-based, human
Protocol: as §1, §2

[2] = tested on: HCT116^−/− cells (NDUFS3 knockout); experiment: Proliferation of CI-deficient cells, Incucyte; type: cell-based, human
From the text: (§3) Human ovarian cancer cell line SKOV3 and murine melanoma cell line B16-F10 were purchased from ATCC (#HTB-77; #CRL-6475, Manassas, VA, USA). Human colorectal cancer cell line HCT116 was authenticated using […]dentifiler kit (Applied Biosystem #4322288) and its STR profile corresponded to the putative background. Mitochondrial DNA (mtDNA) was sequenced by Sanger sequencing as previously described, to ensure wild-type genotype. The results are available upon request. NDUFS3 knockout cells, referred as SKOV3^−/−, HCT116^−/− and B16-F10^−/−, were generated by genome editing as previously reported. Briefly, CRISPR/Cas9 system was used to introduce a frameshift mutation in NDUFS3 gene in SKOV3 human cell line and Ndufs3 gene in B16-F10 murine cell line, using exon 2 targeting guide […] and exon 3 targeting guide […], respectively. Instead, zinc finger endonuclease system was used to obtain HCT116 NDUFS3 knockout. Plasmids containing cDNA of NDUFS3-targeted zinc finger endonucleases (Sigma-Aldrich #CKOZFND15186) were purified and transcribed in vitro. The pool of zinc finger endonucleases mRNAs was transfected into 70% confluent HCT116 cells. The resulting heterozygous clones were subjected to a subsequent second transfection with NDUFS3 zinc finger pool and led to the selection of homozygous frameshift NDUFS3 mutants.
as §1, §2

[3] = tested on: SKOV3^−/− cells (NDUFS3 knockout); experiment: Proliferation of CI-deficient cells, Incucyte; type: cell-based, human
From the text: as §3, §1, §2

[4] = tested on: B16-F10 cells (NDUFS3^+/+); experiment: Cell proliferation, Incucyte live-imaging (confluence); type: cell-based, murine
Protocol: as §1, §2

[5] = tested on: CI (respiratory complex I) in permeabilized SKOV3, HCT116 and B16-F10 cells; experiment: Mitochondrial ATP synthesis rate, CI-driven, digitonin-permeabilized cells (luciferin/luciferase); type: cell-based, human, murine; details: optimized concentrations; all the investigated cell models
Protocol: The rate of mitochondrial ATP synthesis was measured in digitonin-permeabilized CI competent cells by using a luciferin/luciferase assay as previously described with minor modifications [47]. Chemiluminescence was determined as a function of time with a luminometer (Sirius L Tube, Titertek-Berthold, Pforzheim, Germany). After trypsinization, cells (10 × 10^6 ml^−1) were suspended in a buffer containing 150 mM KCl, 25 mM Tris–HCl, 2 mM EDTA (ethylenediaminetetraacetic acid), 0.1% bovine serum albumin, 10 mM potassium phosphate, 0.1 mM MgCl2, pH 7.4, kept at room temperature for 15 min, then incubated with 50 µg ml^−1 digitonin until 90–100% of cells were positive to Trypan Blue staining. Aliquots of 3 × 10^5 permeabilized cells were incubated in the same buffer in the presence of the adenylate kinase inhibitor P1,P5-di(adenosine-5′) pentaphosphate (0.1 mM, Sigma-Aldrich #A2754) and 10 µl of the luciferin/luciferase assay reagent (Sigma-Aldrich #FLAAM-5VL). Then, ATP synthesis rate was determined after the sequential addition of the following substrates and inhibitors. […] Then, CI inhibitors were added at the optimized concentrations that completely suppress maximal respiration previously determined by titration with Seahorse. […]

HCT116 cells = experiment: Apoptotic cell death, Incucyte Caspase-3/7 green dye; type: cell-based, human; details: 72 h
Protocol: (§7) Cells (SKOV3, HCT116 and B16-F10) were seeded in a 96-wells plate in high glucose DMEM, as described above. Drugs were added after 24 h, in presence of 5 µM Incucyte Caspase-3/7 green dye following the manufacturer's protocol. Then, the plate was placed in Incucyte for 72 h and images (4/well) were captured at 10× magnification with 2 h intervals, both in phase contrast and fluorescent green channel. For each cell line, staurosporine (100 nM, Sigma-Aldrich #S4400) treatment was performed as a positive control. For each experimental condition, the masks for fluorescent objects identification were set by the Incucyte integrated analysis software. Total and green positive cells were counted at 10× magnification in three fields of view per condition, and data are expressed as percentage of apoptotic cells [(number of green cells/number of total cells) × 100].

[6] = tested on: SKOV3, HCT116 and B16-F10 cells; experiment: Apoptotic cell death, Incucyte Caspase-3/7 green dye (all cell models); type: cell-based, human, murine; details: 72 h
Protocol: as §7

[7] = tested on: mitochondrial respiration of SKOV3 cells; experiment: Microrespirometry (Seahorse XFe, oxygen consumption rate); type: cell-based, human; details: for IC50: Homo sapiens, read-out: IC50 (residual OCR, concentration-response)
Protocol: (§4) Mitochondrial respiration was measured using the protocol described for the Seahorse XFe Cell Mito Stress Test Kit (Agilent #103015-100) following the manufacturer instructions. Briefly, 12 × 10^3 cells/well (SKOV3, HCT116) and 8 × 10^3 (B16-F10) were seeded in 80 µl of DMEM medium into XFe96 cell culture plates and incubated for 48 h (HCT116) and for 24 h (SKOV3, B16-F10) at 37°C and 5% CO2. Complete growth medium was replaced with 180 µl of XF medium (Agilent #103575-100) supplemented with 10 mM glucose, 1 mM sodium pyruvate, 2 mM L-glutamine, at pH 7.4. For temperature and pH equilibration, cells were incubated at 37°C for 30 min. Three oxygen consumption rate (OCR) baseline measurements were followed by injection of either vehicle or different concentrations of CI-inhibitors and subsequent measurements; 1 µM oligomycin, carbonyl cyanide-p-trifluoromethoxyphenylhydrazone (FCCP), 1 µM rotenone and 1 µM antimycin A were sequentially added to each well. FCCP concentrations were previously optimized by titration and were 0.5 µM for SKOV3, 0.75 µM for HCT116 and 1 µM for B16-F10, respectively. At the end of the assay, medium was removed and sulforhodamine B (SRB) assay was performed to determine protein content for normalization. Briefly, plates were incubated with 10% trichloroacetic acid (TCA) for 1 h at 4°C to fix the cells. Five washes in water were carried out. Once the plates were dry, proteins were stained by incubation with 0.4% SRB for 30 min at RT. SRB was solubilized with 10 mM Tris and absorbance at 560 nm was determined using a Victor2 plate reader (Perkin-Elmer). Data (pmol min^−1) were normalized to blank corrected SRB absorbance.

[8] = tested on: mitochondrial respiration of HCT116 cells; experiment: as above; type: cell-based, human; details: for IC50: Homo sapiens, read-out: IC50 (residual OCR, concentration-response)
Protocol: as §4

[9] = tested on: mitochondrial respiration of B16-F10 cells; experiment: as above; type: cell-based, murine; details: for IC50: Mus musculus
Protocol: as §4

[10] = tested on: B16-F10^−/− cells (NDUFS3 knockout); experiment: Proliferation of CI-deficient cells, Incucyte; type: cell-based, murine
From the text: (§5) Human ovarian cancer cell line SKOV3 and murine melanoma cell line B16-F10 were purchased from ATCC (#HTB-77; #CRL-6475, Manassas, VA, USA). Human colorectal cancer cell line HCT116 was authenticated using […]dentifiler kit (Applied Biosystem #4322288) and its STR profile corresponded to the putative background. Mitochondrial DNA (mtDNA) was sequenced by Sanger sequencing as previously described, to ensure wild-type genotype. The results are available upon request. NDUFS3 knockout cells, referred as SKOV3^−/−, HCT116^−/− and B16-F10^−/−, were generated by genome editing as previously reported. Briefly, CRISPR/Cas9 system was used to introduce a frameshift mutation in NDUFS3 gene in SKOV3 human cell line and Ndufs3 gene in B16-F10 murine cell line, using exon 2 targeting guide […] and exon 3 targeting guide […], respectively. […]
as §1
(§6) Briefly, 2.5 × 10^3 SKOV3/well, 2 × 10^3 HCT116/well and 1 × 10^3 B16-F10/well were seeded in 96-well plates in high-glucose DMEM and incubated overnight to allow cells attachment. […] Cell growth was evaluated by Incucyte system phase contrast software (confluence metrics), which provides an occupied area average (% of confluence) per image/per well. […]

[11] = tested on: NDUFS3^+/+ and NDUFS3^−/− SKOV3, HCT116 and B16-F10 cells; experiment: Specificity assay: proliferation of NDUFS3^+/+ versus NDUFS3^−/− cells, Incucyte; type: cell-based, human, murine; details: EVP 4593 100 nM (SKOV3, HCT116), 200 nM (B16-F10); BAY 87-2243 1 µM, 20 µM (B16-F10); IACS-010759 1 µM, 5 µM (B16-F10); 72 h
Protocol: as §1, §2

[12] = tested on: mitochondrial respiration of SKOV3, HCT116 and B16-F10 cells; experiment: Microrespirometry (Seahorse XFe, OCR), stated across cell models; type: cell-based, human, murine
Protocol: as §4

SKOV3 cells = experiment: Apoptotic cell death, Incucyte Caspase-3/7 green dye; type: cell-based, human; details: 72 h
Protocol: as §7

[13] = tested on: NDUFS3^−/− cells (SKOV3^−/−, HCT116^−/−, B16-F10^−/−); experiment: Proliferation of CI-deficient cells, Incucyte (all three models); type: cell-based, human, murine; details: tested concentrations (up to 1 µM)
From the text: as §5, §1, §6

[14] = B16-F10, figure 4a, read-out: IC50 (residual OCR, concentration-response)
[15] = range over SKOV3, HCT116, B16-F10, read-out: IC50 of mitochondrial respiration (range over cell lines)
[16] = 1 µM (highest concentration applied)
[17] = metformin, dose-dependent over the tested concentrations

Nc1ccc2ncnc(NCCc3ccc(Oc4ccccc4)cc3)c2c1 [EVP 4593, N4-[2-(4-phenoxyphenyl)ethyl]-4,6-quinazolinediamine]
decrease in cell proliferation after 72 h (SKOV3 cells (NDUFS3^+/+); 2.5–20 µM): 49–62%
decrease in cell proliferation after 72 h ([1]; 2.5–20 µM): 52–74%
concentration causing reduction of NDUFS3^−/− cell growth ([2]; HCT116 NDUFS3^−/−): 10 to 20 µM
concentration causing reduction of NDUFS3^−/− cell growth ([3]; SKOV3 NDUFS3^−/−): 20 µM
decrease in cell proliferation after 72 h ([4]; 2.5–20 µM): 66–84%
effect on CI-driven ATP synthesis [5]: strongly inhibit
apoptotic cell death (HCT116 cells; 20 µM): 77.6%
apoptotic cell death ([6]; 2.5 µM): modest percentage of dead cells
massive apoptotic cell death ([6]; optimized concentration (100 nM SKOV3 and HCT116, 200 nM B16-F10)): not detected
lowest concentration able to fully curb mitochondrial respiration [7]: 100 nM
IC50 ([7]; SK-OV-3, figure 4a): 0.0111 µM
lowest concentration able to fully curb mitochondrial respiration [8]: 100 nM
IC50 ([8]; HCT-116, figure 4a): 0.013 µM
lowest concentration able to fully curb mitochondrial respiration ([9]; B16-F10): 200 nM
IC50 [9, 14]: 0.0299 µM
concentration causing reduction of NDUFS3^−/− cell growth ([10]; B16-F10 NDUFS3^−/−): 20 µM
effect on cell proliferation at optimized concentrations, NDUFS3^+/+ versus CI-defective counterparts [11]: reduced cell proliferation of NDUFS3^+/+ cells only
concentration range completely suppressing mitochondrial respiration ([12]; in our models (SKOV3, HCT116, B16-F10)): 100 to 200 nM
IC50 [12, 15]: 0.011 to 0.03 µM
apoptotic cell death (SKOV3 cells; 20 µM): 24.6%

Cc1cc(-c2nc(-c3ccc(OC(F)(F)F)cc3)no2)nn1Cc1ccnc(N2CCN(C3CC3)CC2)c1 [BAY 87-2243, 1-cyclopropyl-4-(4-[(5-methyl-3-{3-[4-(trifluoromethoxy)phenyl]-1,2,4-oxadiazol-5-yl)-1H-pyrazol-1-yl)methyl]pyridin-2-yl) piperazine]
reduction of cell growth after 72 h treatment (SKOV3 cells (NDUFS3^+/+); [16]): 38%
reduction of cell growth after 72 h treatment [1, 16]: 20%
reduction of cell growth after 72 h treatment [4, 16]: 28%
effect on CI-driven ATP synthesis [5]: strongly inhibit
apoptosis (percentage of cells) ([6]; tested BAY 87-2243 concentrations): very low percentage of cells
lowest concentration that completely inhibited mitochondrial respiration (abolished OCR) [7]: 1 µM
IC50 ([7]; SK-OV-3, figure 4a): 0.115 µM
lowest concentration that completely inhibited mitochondrial respiration (abolished OCR) [8]: 1 µM
IC50 ([8]; HCT-116, figure 4a): 0.172 µM
concentration required to suppress maximal OCR (abolished OCR) ([9]; B16-F10): 20 µM
IC50 [9, 14]: 7.04 µM
IC50 ([9]; murine B16-F10 cells, read-out: IC50 (mitochondrial respiration)): 7 µM
fold less efficient in murine B16-F10 cells compared to human models ([9]; ratio of IC50, B16-F10 versus human models): 50 fold
effect on CI-deficient cancer cell growth [13]: unaffected
effect on cell proliferation at optimized concentrations, NDUFS3^+/+ versus CI-defective counterparts [11]: reduced cell proliferation of NDUFS3^+/+ cells only
IC50 ([12]; human models (SKOV3, HCT116), read-out: IC50 (mitochondrial respiration)): 0.115 to 0.171 µM
IC50 [12, 15]: 0.12 to 7 µM

Cc1nc(-c2nc(-c3ccc(OC(F)(F)F)cc3)no2)nn1Cc1cccc(N2CCC(S(C)(=O)=O)CC2)c1 [IACS-010759]
lowest concentration that completely inhibited mitochondrial respiration (abolished OCR) [7]: 1 µM
lowest concentration that completely inhibited mitochondrial respiration (abolished OCR) [8]: 1 µM
concentration required to suppress maximal OCR (abolished OCR) ([9]; B16-F10): 5 µM
effect on cell proliferation at optimized concentrations, NDUFS3^+/+ versus CI-defective counterparts [11]: reduced cell proliferation of NDUFS3^+/+ cells only

CN(C)C(=N)NC(=N)N.Cl [metformin, 1,1-dimethylbiguanide hydrochloride]
reduction of cell growth after 72 h (SKOV3 cells (NDUFS3^+/+); [17]): 58–90%
reduction of cell growth after 72 h [1, 17]: 46–77%
concentrations at which NDUFS3^−/− cell growth was reduced (CI-independent antiproliferative effect) ([2]; metformin, HCT116^−/−): all the tested concentrations
concentrations at which NDUFS3^−/− cell growth was reduced (CI-independent antiproliferative effect) ([3]; metformin, SKOV3^−/−): all the tested concentrations
reduction of cell growth after 72 h [4, 17]: 24–62%
apoptotic cell death (HCT116 cells; 2.5 mM): comparable to the untreated control
IC50 ([7]; SK-OV-3, pre-incubated 24 h before OCR measurement, figure 4a): 554 µM
concentration abolishing basal OCR ([7]; pre-incubation for 24 h): 2 mM
IC50 ([8]; HCT-116, pre-incubated 24 h before OCR measurement, figure 4a): 225 µM
concentration abolishing basal OCR ([8]; pre-incubation for 24 h): 2 mM
IC50 ([9]; B16-F10, pre-incubated 24 h before OCR measurement, figure 4a, read-out: IC50 (residual OCR, concentration-response)): 1340 µM
concentration abolishing basal OCR ([9]; pre-incubation for 24 h, B16-F10): 10 mM
concentrations at which NDUFS3^−/− cell proliferation was reduced (CI-independent antiproliferative effect) ([10]; metformin, B16-F10^−/−, only at high concentrations): 10 to 20 mM
decrease of basal respiration (OCR) ([12]; acute injection, only at the highest concentration (50 mM), independently from the cell model): 25–35%
concentration abolishing maximal respiration ([12]; cells pre-incubated (24 h)): 50 mM
IC50 ([12]; range over SKOV3, HCT116, B16-F10, 24 h pre-incubation, read-out: IC50 of mitochondrial respiration (range over cell lines)): 225 to 1340 µM
apoptotic cell death (portion of the cells) (SKOV3 cells; 2.5 mM): 2.8%
